Measured values as given in ChEMBL document CHEMBL1201862, “PubChem BioAssay data set” (2004).
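How tested: cells in 96-well plates exposed to compound for 48 hours at five concentrations. GI50 marks 50% less growth.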 Active and inactive are the calls of the source. Rule as the data show it: active = GI50 up to about 1.1 µM and inactive = higher.

Assays:
Experiment in all cases: DTP human tumour cell line panel, 48 h
SF-268 = tested on: SF-268
OVCAR-8 = tested on: OVCAR-8
SK-OV-3 = tested on: SK-OV-3
SK-MEL-28 = tested on: SK-MEL-28
NCI-H226 = tested on: NCI-H226
OVCAR-5 = tested on: OVCAR-5
HOP-62 = tested on: HOP-62
MDA-MB-435 = tested on: MDA-MB-435
A549 = tested on: A549
SK-MEL-5 = tested on: SK-MEL-5
A498 = tested on: A498
MDA-MB-231 = tested on: MDA-MB-231
M14 = tested on: M14
UACC-257 = tested on: UACC-257
OVCAR-3 = tested on: OVCAR-3
MCF7 = tested on: MCF7
HL-60 = tested on: HL-60
Malme-3M = tested on: Malme-3M
HCT-116 = tested on: HCT-116
BT-549 = tested on: BT-549

COc1cc(/C=C2\C[C@H]3[C@@H]4CC=C5C[C@@H](N6CCCC6)CC[C@]5(C)[C@H]4CC[C@]3(C)[C@H]2OC(C)=O)cc(OC)c1OC
GI50 (SF-268): 14.6 µM (inactive)
GI50 (OVCAR-8): 15 µM (inactive)
GI50 (SK-OV-3): 15.3 µM (inactive)
GI50 (SK-MEL-28): 19 µM (inactive)
GI50 (NCI-H226): 24.8 µM (inactive)
GI50 (OVCAR-5): 15.8 µM (inactive)
GI50 (HOP-62): 15.6 µM (inactive)
GI50 (MDA-MB-435): 12.9 µM (inactive)
GI50 (A549): 15.3 µM (inactive)
GI50 (SK-MEL-5): 15.1 µM (inactive)
GI50 (A498): 15.2 µM (inactive)
GI50 (MDA-MB-231): 16.3 µM (inactive)
GI50 (M14): 15.8 µM (inactive)
GI50 (UACC-257): 19.6 µM (inactive)
GI50 (OVCAR-3): 15.5 µM (inactive)
GI50 (MCF7): 15.9 µM (inactive)
GI50 (HL-60): 21.9 µM (inactive)
GI50 (Malme-3M): 21.5 µM (inactive)
GI50 (HCT-116): 15.5 µM (inactive)
GI50 (BT-549): 14.9 µM (inactive)

CC(=O)c1cc2c(s1)C(=O)c1ccccc1C2=O
GI50 (SF-268): 2.73 µM (inactive)
GI50 (OVCAR-8): 1.74 µM (inactive)
GI50 (SK-OV-3): 15.3 µM (inactive)
GI50 (SK-MEL-28): 8.05 µM (inactive)
GI50 (NCI-H226): 2.61 µM (inactive)
GI50 (OVCAR-5): 5.25 µM (inactive)
GI50 (HOP-62): 2.44 µM (inactive)
GI50 (MDA-MB-435): 0.791 µM (active)
GI50 (A549): 3.52 µM (inactive)
GI50 (SK-MEL-5): 0.26 µM (active)
GI50 (A498): 29.3 µM (inactive)
GI50 (MDA-MB-231): 3.13 µM (inactive)
GI50 (M14): 0.557 µM (active)
GI50 (UACC-257): 1.57 µM (inactive)
GI50 (OVCAR-3): 0.513 µM (active)
GI50 (MCF7): 2.08 µM (inactive)
GI50 (HL-60): 2.13 µM (inactive)
GI50 (Malme-3M): 1.28 µM (inactive)
GI50 (HCT-116): 1.68 µM (inactive)
GI50 (BT-549): 1.62 µM (inactive)

C=C(C)[C@@H](O)[C@H](O)C[C@H](C)C1CC[C@]2(C)C1=CC[C@@H]1[C@@]3(C)CC[C@@H](OC(C)=O)C(C)(C)[C@@H]3C[C@@H](OC3OC(COC(C)=O)C(O)C(O)C3O)[C@]12C (stereo not given in full)
GI50 (SF-268): 2.78 µM (inactive)
GI50 (OVCAR-8): 4.04 µM (inactive)
GI50 (SK-OV-3): 3.48 µM (inactive)
GI50 (SK-MEL-28): 2.54 µM (inactive)
GI50 (NCI-H226): 3.05 µM (inactive)
GI50 (OVCAR-5): 1.87 µM (inactive)
GI50 (HOP-62): 2.99 µM (inactive)
GI50 (MDA-MB-435): 2 µM (inactive)
GI50 (A549): 3.48 µM (inactive)
GI50 (SK-MEL-5): 2.1 µM (inactive)
GI50 (A498): 3.36 µM (inactive)
GI50 (MDA-MB-231): 2.21 µM (inactive)
GI50 (M14): 2.72 µM (inactive)
GI50 (UACC-257): 2.89 µM (inactive)
GI50 (OVCAR-3): 2.17 µM (inactive)
GI50 (MCF7): 2.96 µM (inactive)
GI50 (HL-60): 2.05 µM (inactive)
GI50 (Malme-3M): 2.06 µM (inactive)
GI50 (HCT-116): 2.27 µM (inactive)
GI50 (BT-549): 3.33 µM (inactive)
